The target of data set [1] is T1, wild-type His6-tagged H-Ras (1-166) pre-loaded with GDP (Homo sapiens, UniProt P01112).
T1 construct: wild-type and mutant His6-tagged H-Ras (1-166) pre-loaded with GDP; made in house; host or cells: Escherichia coli (BL21)
Kind of data set: Fluorescence polarization binding assay, wild-type H-Ras-GDP. An excerpt: GTP of the Ras-specific nucleotide exchange factor SOS. Cell 112, 685-695 (2003).
For orientation: Polarisation of emitted light reports the rotation of a fluorescent probe.

The next data set deals with T2, wild-type H-Ras-GDP (Homo sapiens, UniProt P01112).
T2 construct: Wild-type and mutant N-terminal His6-H-Ras (residues 1-166) in pProEx HTb expression vector; His6 (N); made in house; host or cells: Escherichia coli (BL21)
T2 sequence (P01112 1-166): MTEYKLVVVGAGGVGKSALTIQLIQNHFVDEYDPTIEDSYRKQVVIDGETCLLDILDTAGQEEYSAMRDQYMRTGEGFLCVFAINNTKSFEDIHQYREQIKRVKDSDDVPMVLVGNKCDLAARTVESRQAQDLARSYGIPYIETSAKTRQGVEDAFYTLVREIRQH
Description: Microscale thermophoresis (MST), wild-type H-Ras-GDP. The data set is classed as binding. The procedure: Fluorescent labeling of the H-Ras protein was performed using the Monolith Protein Labeling Kit RED-MALEIMIDE 2nd Generation from NanoTemper (MO-L014) or AFDye 647 maleimide fluoroprobes (1122-1). Briefly, 20 nM of H-Ras protein was labeled with 1.5 equivalents of cysteine reactive dye in the 1× PBS under dark for 90 minutes. Labeled Ras proteins were then purified via the kit provided column, and the Degree of Label (DOL) was calculated by using the dye's absorbance and protein's original absorbance. The observed DOL value after the labeling for wild-type H-Ras-GDP was 0.43 and G12V H-Ras-GDP was 0.98.
MST binding assays were conducted with NanoTemper Monolith NT.115 Pico. Assay conditions were optimized with a premium coated capillary tube from NanoTemper to avoid random adsorption. Measurement was performed at 25° C. using 10-15% laser excitation power for 20 seconds. The assay buffer was composed of 50 mM Tris, 100 mM NaCl, and 0.1% pluronic acid. 5-10 nM of the dye labeled protein was exposed to serial dilutions of indicated CHDs and incubated for 90 mins in room temperature before the measurements. Error bars are generated from triplicates. Binding affinities were obtained from the MO analysis software in NT.115 Pico with the following equation:
[formula] [formula] • where, Unbd=Response value of unbound state Bd=Response value of bound state TC=Final concentration of fluorescent molecule

Another data set concerns T24 cells. Kind of data set: Flow cytometry cellular uptake, T24. As to conditions: fluorescently labeled peptide 1 μM, 1 h. The data set is classed as cell-based. The procedure: (§1) All compounds are dissolved as concentrated stocks in DMSO.
For orientation: A flow cytometer gives signals particle by particle.

Another data set relates to H358 cells. Kind of data set: Flow cytometry cellular uptake, H358. The conditions noted are these: fluorescently labeled peptide 1 μM, 1 h. The data set is classed as cell-based. The procedure:
as §1

The test system of data set [2] is Ras wild type and mutant cell lines. Description: MTT cell viability assay. As to conditions: 72 hours, in presence of serum; oncogenic Ras mutant cell lines in comparison to wild-type Ras HeLa control. The data set is classed as cell-based. How it is done: Cell viability was monitored using the MTT (Sigma-Aldrich, M2128) or CellTiter-Glo Luminescent cell viability assay (Promega).
Cell viability was monitored using the MTT (Sigma-Aldrich, M2128) […] cell viability assay. Cells were plated in clear 96-well plates at 2000 cells/well and allowed to affix overnight at 37° C. Each well is gently aspirated and washed with serum-free medium before introducing peptide inhibitors dissolved in complete medium with 0.5% DMSO (v/v final) to desired concentrations (90 μL/well). The cells are incubated in the presence of peptide for 72 hours at 37° C. MTT reagent solution is composed of Thiazolyl Blue Tetrazolium Bromide dissolved in Dulbecco's Phosphate Buffered Saline (DPBS), pH 7.4 to a concentration of 5 mg/mL and subsequently sterile-filtered into a light-protected container. MTT reagent was added to each well (0.45 mg/mL/well final). The cells are incubated at 37° C. for an additional 4 hours. Upon careful removal of the supernatant, 150 μL DMSO (solubilization solution) is added to each well and mixed to ensure complete solubilization and release of the insoluble purple formazan precipitate into solution. Absorbance values are recorded with a Synergy HT Multi-Detection Microplate Reader (BioTek) at 570 nm.
A general note: Formazan colour is commonly taken as a measure of viable cells.

Data set [3] relates to ERK phosphorylation in H358 cells. Description: ERK activation assay, H358. The format is cell-based. The conditions noted are these: H358 cells, 1, 5, 10 μM, 6 hours. The procedure: (§2) H358 or HeLa cells were initially seeded in 6-well plates (1x10^6 cells/well) and allowed to attach overnight. The cells were then incubated with indicated peptides dissolved in complete medium at specified concentrations for 6 hours at 37° C. The cells were washed twice with ice-cold PBS and then lysed in cold RIPA buffer (200 μL/well) containing 25 mM Tris-HCl, pH 7.6, 150 mM NaCl, 1% NP-40, 1% sodium doexycholic acid, 0.1% SDS, Roche Complete Protease inhibitor cocktail (1X, Sigma-Aldrich, P2714), and Roche PhosSTOP phosphatase inhibitor cocktail tablets (1X, Sigma-Aldrich, 4906845001). The cells are kept on ice for 5 minutes with occasional swirling for uniform spreading. Cell lysates are generated with a cell scraper, transferred to a microcentrifuge tube, and centrifuged at 13,000 rpm for 10 minutes at 4° C. The clarified supernatant was collected, and the total protein concentration was measured by Pierce BCA protein assay. The lysates were subjected to SDS-PAGE (10 μg/lane loading) and Western Blot analysis via immunoblotting. Primary antibodies include Phospho-p44/42 MAPK (Erk1/2) (Thr202/Tyr204) (Cell Signaling 4370), p44/42 MAPK (Erk1/2) (Cell Signaling 4695), Ras (Abcam ab 108602), and a-tubulin (Cell Signaling 2144). Secondary antibodies include anti-rabbit IgG, HRP-linked antibody (Cell Signaling 7074P2, 1:2000). […]

Data set [4] has as its system ERK phosphorylation in HeLa cells. Description: ERK activation assay, HeLa. The data set is classed as cell-based. The conditions noted are these: HeLa cells (wild-type Ras), 1, 5, 10 μM, 6 hours. How it is done:
as §2

The target of data set [5] is G12C mutant H-Ras pre-loaded with GDP (Homo sapiens, UniProt P01112, G12C). How it is done: (§3) Wild-type and mutant N-terminal His6-H-Ras (residues 1-166) in pProEx HTb expression vector were expressed in Escherichia coli (BL21). Cells were grown at 37 ° C. to an absorbance of 0.7 at 600 nm. Protein expression was induced with 500 μM isopropyl β-D-1-thiogalactopyranoside (IPTG) for 6 hours at 30° C. or overnight at 18° C. The bacterial cells were pelleted via centrifugation at 4500 rpm for 15 minutes. Bacterial pellets were resuspended in a lysis buffer containing 20 mM Tris pH 7.4, 300 mM NaCl, 2 mM 2-mercaptoethanol, and a complete, EDTA-free protease inhibitor cocktail (Roche). The lysis, elution and dialysis buffers were also supplemented with 2.5 mM MgCl2. The resuspended pellets were sonicated using a Branson Cell Disrupter 200. Clarified lysates were formed upon centrifugation at 13,000 rpm for 20 minutes at 4° C. and incubated with charged Ni-NTA resin (Invitrogen) at 4° C. for 1 hour. The resin beads were washed five times with resuspension buffer containing 5 mM imidazole. The His6-tagged proteins were eluted via gravity flow with buffer containing 200 mM imidazole in buffer containing 20 mM Tris, 300 mM NaCl, pH 7.4. Eluted proteins were dialyzed twice against buffer containing 20 mM Tris, 300 mM NaCl, 2.5 mM MgCl2, pH 7.4 for H-Ras. For HSQC and photoaffinity labeling studies, the polyhistidine tag was cleaved using Tobacco Etch Virus (TEV) protease before proceeding to nucleotide loading.
G12C mutant H-Ras pre-loaded with GDP, sequence (P01112 1-166 G12C): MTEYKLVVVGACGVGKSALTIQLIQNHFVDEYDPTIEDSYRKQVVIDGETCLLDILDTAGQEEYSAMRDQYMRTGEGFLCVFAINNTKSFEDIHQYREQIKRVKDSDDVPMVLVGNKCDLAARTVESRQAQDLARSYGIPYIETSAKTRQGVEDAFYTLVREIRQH
(§4) The generated binding affinity (KD) values for each compound are from biological triplicate studies and were determined via fitting to a sigmoidal dose-response nonlinear regression model on Graphpad Prism 6.

Data set [6] concerns the target G12D mutant H-Ras pre-loaded with GDP (Homo sapiens, UniProt P01112, G12D). How it is done:
as §3, §4

Data set [7] addresses G12V mutant H-Ras pre-loaded with GDP (Homo sapiens, UniProt P01112, G12V). How it is done: as §3, §4
A further data set has as its system SW780 cells. As to conditions: SW780 cells (oncogenic FGFR3 fusions), 1 μM, 1 h.
For data set [8] the following is noted: compared to CHD^Sos-2.
A further data set in a line: in vitro. As to conditions: bovine, 25% fetal bovine serum.

The text below walks through data of patent publication US20240124539A1, “CROSSLINKED HELIX DIMER MIMICS OF SOS AND METHODS OF USING SAME” (NEW YORK UNIVERSITY, priority 2020, published 2024).

Where two headings read alike, the source gives them in different places. Residues, ends and D or L forms follow the SMILES beside them.

What is called Kd is a measure of binding affinity in units of concentration. By half-life is commonly meant the time in which the quantity being followed falls by half. Low values mean fast loss, high ones slow loss. One may read the share remaining as the share of the starting amount still present when the sample was taken.

T1 sequence (P01112 1-166): as the sequence (P01112 1-166) above
G12V mutant H-Ras pre-loaded with GDP, sequence (P01112 1-166 G12V): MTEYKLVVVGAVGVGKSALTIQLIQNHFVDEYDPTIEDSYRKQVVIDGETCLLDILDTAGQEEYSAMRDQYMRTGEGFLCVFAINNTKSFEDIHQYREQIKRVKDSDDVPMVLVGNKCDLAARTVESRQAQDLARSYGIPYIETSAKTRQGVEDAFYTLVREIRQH
G12D mutant H-Ras pre-loaded with GDP, sequence (P01112 1-166 G12D): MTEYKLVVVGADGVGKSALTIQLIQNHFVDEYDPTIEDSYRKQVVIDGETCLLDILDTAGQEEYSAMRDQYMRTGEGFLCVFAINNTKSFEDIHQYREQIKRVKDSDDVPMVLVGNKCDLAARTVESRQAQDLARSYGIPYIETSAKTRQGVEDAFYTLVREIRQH
Description for SW780 cells: The indicated cell lines were seeded at 1×10^5 cells/well in clear polystyrene 24-well plates (Corning) and incubated overnight. The initial growth medium is replaced with serum-free medium and incubated for 2 hours at 37° C. Upon aspiration, the cells are incubated in serum-free medium containing 0.4% DMSO (v/v) for one hour. The cells were then treated with 1 μM (final) of fluorescein-conjugated peptides in serum-free medium for another hour while protected from light. All compounds are dissolved as concentrated stocks in DMSO. Each well was aspirated and treated with 1× trypsin (0.25% trypsin, 2.21 mM EDTA, Corning Cellgro) for 10 minutes at 37° C. After trypsinization, the resulting solution was mixed with cold serum-free medium and collected. The samples are centrifuged at 500 rpm for 5 minutes at 4 °C.
The supernatant was removed, and the cell pellets were resuspended with cold PBS before placed on ice. Each sample was treated with 10% trypan blue (v/v) immediately before analysis by flow cytometry on a Becton Dickinson Accuri flow cytometer. The presented data consists of the median fluorescence intensities for at least 10,000 cells/sample and processed using FlowJo (Tree Star Inc.).
Description for in vitro: A 45 μL mixture of 33% FBS (v/v) in serum-free medium was prepared for each sample. The addition of 15 μL of indicated peptide in serum-free medium (25% FBS final) per each experiment was recorded as the starting time point. Time points of 5 min, 6 hours, 12 hours, and 24 hours were analyzed in triplicate. Each experiment was quenched at the determined time point by adding 30 μL 100% EtOH, which was prepared at −70° C. After cooling on ice for 10 minutes, each sample was pelleted at 14,000× g for 5 minutes. 30 μL of the supernatant was isolated, and 3 μL of 500 μM L-Tryptophan was titrated into the sample to be used as an internal standard. The resulting mixture was then immediately subjected to RP-HPLC with a C18 3.5 μm 2.1×150 mm analytical column and monitored at 280 nm. Eluting peaks were collected, and the mass of each peak was determined using MALDI-TOF spectroscopy. Integrated peak area of non-degraded peptides was used to determine the percent surviving in each given condition.

In the case of `CC[C@H](C)[C@H](NC(=O)[C@H](C)NC(C)=O)C(=O)NCC(=O)N[C@@H](CCCNC(=N)N)C(=O)N[C@@H](CC(C)C)C(=O)N[C@@H](CSCc1ccc(COCc2ccc(CSC[C@H](NC(=O)[C@H](CC(C)C)NC(=O)[C@H](CCCNC(=N)N)NC(=O)[C@H](C)NC(=O)[C@H](CC(C)C)NC(=O)[C@H](CCC(=O)O)NC(=O)[C@H](CCCNC(=N)N)NC(=O)[C@H](CCC(=O)O)NC(=O)[C@H](CC(C)C)NC(=O)[C@H](CCC(=O)O)NC(=O)[C@H](CCCNC(=N)N)NC(=O)[C@H](CC(C)C)NC(=O)[C@H](CCCNC(=N)N)NC(=O)[C@H](Cc3c[nH]c4ccccc34)NC(=O)[C@H](C)NC(=O)[C@H](CC(C)C)NC(C)=O)C(N)=O)cc2)cc1)C(=O)N[C@H](C(=O)N[C@@H](CCC(=O)O)C(=O)N[C@H](C(=O)N[C@@H](CC(C)C)C(=O)N[C@@H](CCCNC(=N)N)C(=O)N[C@@H](CC(C)C)C(=O)N[C@@H](CCCNC(=N)N)C(=O)N[C@@H](CC(N)=O)C(=O)NCC(=O)N[C@@H](C)C(N)=O)[C@@H](C)CC)[C@@H](C)O` [CHC^Sos-3] (HELM PEPTIDE1{[ac].A.I.G.R.L.C.T.E.I.L.R.L.R.N.G.A.[am]}|PEPTIDE2{[ac].L.A.W.R.L.R.E.L.E.R.E.L.A.R.L.C.[am]}|CHEM1{[c1cc(C[*:1])ccc1COCc1ccc(C[*:2])cc1]}$PEPTIDE1,CHEM1,7:R3-1:R1|PEPTIDE2,CHEM1,17:R3-1:R2$$$V2.0), the Kd in data set [1] (fluorescein-derivatized CHD, GDP-bound wild-type H-Ras, fluorescence polarization, read-out: binding affinity, Kd) was above 100 µM; at wild-type H-Ras-GDP (MST, fluorescently-labeled Ras, read-out: binding affinity, Kd), above 100 µM. Moreover, on wild-type H-Ras-GDP (MST with wild-type H-Ras-GDP, interrupted binding isotherm), the “concentration above which aggregation was observed” value is on record as “higher than 3 μM”. Besides, the “cellular uptake, median fluorescence intensity” value in the data set on T24 cells and with H358 cells was “lower uptake than CHC^Sos-5” in each case. The “cell viability (MTT)” value in data set [2] is “little to no effect”. In addition, the “effect on ERK phosphorylation” value in data set [3] and in data set [4] was “did not suppress ERK phosphorylation” in each case.
As for `CC[C@H](C)[C@H](NC(=O)[C@H](Cc1c[nH]c2ccccc12)NC(C)=O)C(=O)NCC(=O)N[C@@H](CCCNC(=N)N)C(=O)N[C@@H](CC(C)C)C(=O)N[C@@H](CSCc1ccc(COCc2ccc(CSC[C@H](NC(=O)[C@H](CC(C)C)NC(=O)[C@H](CCCNC(=N)N)NC(=O)[C@H](C)NC(=O)[C@H](CC(C)C)NC(=O)[C@H](CCC(=O)O)NC(=O)[C@H](CCCNC(=N)N)NC(=O)[C@H](CCC(=O)O)NC(=O)[C@H](CC(C)C)NC(=O)[C@H](CCC(=O)O)NC(=O)[C@H](CCCNC(=N)N)NC(=O)[C@H](CC(C)C)NC(=O)[C@H](CCCNC(=N)N)NC(=O)[C@H](Cc3c[nH]c4ccccc34)NC(=O)[C@H](C)NC(=O)[C@H](CC(C)C)NC(C)=O)C(N)=O)cc2)cc1)C(=O)N[C@H](C(=O)N[C@@H](CCC(=O)O)C(=O)N[C@H](C(=O)N[C@@H](CCCCNC(=N)N)C(=O)N[C@@H](CCCNC(=N)N)C(=O)N[C@@H](CC(C)C)C(=O)N[C@@H](CCCNC(=N)N)C(=O)N[C@@H](CC(N)=O)C(=O)NCC(=O)N[C@@H](CC(N)=O)C(N)=O)[C@@H](C)CC)[C@@H](C)O` [CHC^Sos-5] (HELM PEPTIDE1{[ac].L.A.W.R.L.R.E.L.E.R.E.L.A.R.L.C.[am]}|PEPTIDE2{[ac].W.I.G.R.L.C.T.E.I.[N=C(N)NCCCC[C@H](N[*:1])C(=O)[*:2]].R.L.R.N.G.N.[am]}|CHEM1{[c1cc(C[*:1])ccc1COCc1ccc(C[*:2])cc1]}$PEPTIDE1,CHEM1,17:R3-1:R1|PEPTIDE2,CHEM1,7:R3-1:R2$$$V2.0), the dissociation constant (Kd) in data set [1] stood at 2 ± 0.3 µM; at wild-type H-Ras-GDP it was 0.3 ± 0.1 µM. The binding affinity result in [5], in [6] and in data set [7] was “low micromolar affinity range” each time. Further, in the data set with SW780 cells, the cellular uptake entry is reported as “permeable”. Besides, in data set [8], the aqueous solubility result is “improves its aqueous solubility”. Further, the half-life in the data set “in vitro” is above 24 h. In “in vitro”, this compound displayed a share remaining at 24 h of around 60%.
